Results published in patent US12064516B2, “Pharmaceutical formulations and uses thereof” (Aldeyra Therapeutics, Inc., priority 2020, dated 2024).

Tests used:
[1] = Pharmacokinetic comparison of ADX-102 (reproxalap) and compound I-1 in rats; type: in vivo, Sprague-Dawley rats; conditions: Sprague-Dawley, in vivo, SD Rat
malondialdehyde (MDA) = assay: Plasma malondialdehyde (MDA) in Phase 1 subjects administered I-1 orally; type: in vivo, human; conditions: healthy volunteers
[2] = Solubility of I-1 drug substance; type: physicochemical
Excerpt: Spray-drying was selected for formulation of this compound. By co-precipitating the compound with a polymer in a stable amorphous solid dispersion, spray-drying improved the dissolution rates and enhanced the bioavailability. […] This made I-1 an appropriate candidate for the application of formulation through spray drying dispersion (SDD).

[3] = Phase 1 clinical trial, safety and tolerability (adverse events, labs, vitals, QTcF); conditions: for subjects with TEAEs, %: subjects who received I-1
Excerpt: This Phase 1 trial was a first-in-human, randomized, double-blind, placebo-controlled trial with a 3:1 randomization of I-1 and placebo. The trial was comprised of single ascending dose (SAD) and multiple ascending dose (MAD) protocols. MAD drug exposure was 10 days of twice-per-day (BID) administration.
A total of 54 healthy volunteers were randomized across two cohorts of varying doses: 41 subjects received I-1 and 13 subjects received placebo.
Thirty-one (31) subjects were randomized to varying doses: 23 subjects received I-1 and 8 subjects received placebo.

[4] = Pharmacokinetic comparison of ADX-102 (reproxalap) and compound I-1 in rats; type: in vivo, Sprague-Dawley rats
Method: Compound I-1 is the des-chloro analog of ADX-102. […] We have therefore investigated compound I-1 in 90-day toxicology studies in rat and dog as well as 10-day studies in man. We compared two data sets to contrast the pharmacokinetics of the two test articles. A 50 mg/kg oral dose PK study of compound I-1 was conducted in Sprague-Dawley rats using methylcellulose suspension. […] Both studies also incorporated intravenous administration in captisol for the calculation of clearance and steady state volume of distribution.
Both studies were dosed by oral gavage. Bioanalysis was conducted using LC-MS/MS. Further details of the experimental approach can be found in the individual reports.

[5] = SD Rat, oral gavage 50 mg/kg, 0.5% MC
[6] = Sprague-Dawley, in vivo, SD Rat, oral gavage 50 mg/kg, 0.5% MC

CC(C)(O)c1nc2ccccc2cc1N [I-1]
clearance ([1]; intravenous data using captisol formulation): 65.8 mL/min/kg | half-life ([1]; oral gavage 50 mg/kg, 0.5% MC): 2.96 h | free MDA levels in plasma (malondialdehyde (MDA)): decrease in free MDA levels | solubility in aqueous media [2]: poor solubility in aqueous media | solubility in non-polar solvents [2]: increased solubility in non-polar solvents | intensity and relatedness of TEAEs ([3]; MAD): mild and deemed not to be related to the study drug | subjects with TEAEs, % ([3]; MAD): 17.4% | Pruritis, % of subjects ([3]; MAD, I-1 50 mg BID): (16.7%) | Pruritis, N subjects ([3]; MAD, I-1 50 mg BID): 1 | Rhinitis, N subjects ([3]; MAD, I-1 50 mg BID): 0 | URTI, N subjects ([3]; MAD, I-1 50 mg BID): 0 | Headache, N subjects ([3]; MAD, I-1 150 mg BID): 0 | Ligament sprain, N subjects ([3]; MAD, I-1 150 mg BID): 0 | Muscle spasms, N subjects ([3]; MAD, I-1 150 mg BID): 0 | Nasal congestion, % of subjects ([3]; MAD, I-1 150 mg BID): (16.7%) | Nasal congestion, N subjects ([3]; MAD, I-1 150 mg BID): 1 | Pruritis, N subjects ([3]; MAD, I-1 150 mg BID): 0 | Rhinitis, N subjects ([3]; MAD, I-1 150 mg BID): 0 | URTI, N subjects ([3]; MAD, I-1 150 mg BID): 0 | Headache, N subjects ([3]; MAD, I-1 350 mg BID): 0 | Ligament sprain, N subjects ([3]; MAD, I-1 350 mg BID): 0 | Muscle spasms, N subjects ([3]; MAD, I-1 350 mg BID): 0 | Nasal congestion, N subjects ([3]; MAD, I-1 350 mg BID): 0 | Pruritis, N subjects ([3]; MAD, I-1 350 mg BID): 0 | URTI, % of subjects ([3]; MAD, I-1 350 mg BID): (20.0%) | URTI, N subjects ([3]; MAD, I-1 350 mg BID): 1 | Headache, N subjects ([3]; MAD, I-1 600 mg BID): 0 | Ligament sprain, N subjects ([3]; MAD, I-1 600 mg BID): 0 | Muscle spasms, N subjects ([3]; MAD, I-1 600 mg BID): 0 | Nasal congestion, N subjects ([3]; MAD, I-1 600 mg BID): 0 | Pruritis, N subjects ([3]; MAD, I-1 600 mg BID): 0 | Rhinitis, % of subjects ([3]; MAD, I-1 600 mg BID): (16.7%) | Rhinitis, N subjects ([3]; MAD, I-1 600 mg BID): 1 | URTI, N subjects ([3]; MAD, I-1 600 mg BID): 0 | Headache, N subjects ([3]; MAD, I-1 Total): 0 | Ligament sprain, N subjects ([3]; MAD, I-1 Total): 0 | Muscle spasms, N subjects ([3]; MAD, I-1 Total): 0 | Nasal congestion, % of subjects ([3]; MAD, I-1 Total): (4.3%) | Nasal congestion, N subjects ([3]; MAD, I-1 Total): 1 | Pruritis, % of subjects ([3]; MAD, I-1 Total): (4.3%) | Pruritis, N subjects ([3]; MAD, I-1 Total): 1 | Rhinitis, % of subjects ([3]; MAD, I-1 Total): (4.3%) | Rhinitis, N subjects ([3]; MAD, I-1 Total): 1 | URTI, % of subjects ([3]; MAD, I-1 Total): (4.3%) | URTI, N subjects ([3]; MAD, I-1 Total): 1 | QTcF prolongation ([3]; Phase 1): did not lead to QTcF prolongation | changes in heart rate, blood pressure, respiratory rate, pulse oximetry, temperature ([3]; Phase 1): No clinically meaningful changes | changes in hepatic or renal analytes (ALT, AST, ALP, amylase, GGT, bilirubin, creatinine kinase, creatinine) ([3]; Phase 1): No clinically meaningful changes | changes in serum glucose ([3]; Phase 1): No changes | hematological changes ([3]; Phase 1): No clinically significant hematological changes | subjects with QTcF ≥500 msec or a change of ≥60 msec from baseline ([3]; Phase 1): no subjects | subjects with QTcF change of >30 msec from baseline ([3]; Phase 1, three in SAD, two in MAD): Five | interruptions or discontinuations of study drug administration ([3]; Phase 1 SAD and MAD): no interruptions or discontinuations | overall safety and tolerability ([3]; Phase 1 SAD and MAD): safe and tolerable | TEAE description ([3]; SAD, one subject in 100 mg dose cohort): syncope lasting less than a minute, moderate in intensity and deemed to be related to the study drug | TEAE description ([3]; SAD, one subject, single dose of 700 mg): sinus congestion, mild in intensity and deemed not to be related to I-1 | subjects with TEAEs, % ([3]; SAD): 3.7% | subjects with treatment emergent adverse events (TEAEs), % ([3]; all subjects receiving I-1 (SAD and MAD)): 9.4% | AUC 0-inf/Dose [4, 5]: 153 | AUC 0-t/Dose [4, 5]: 146 | Vd ([4]; Sprague-Dawley, in vivo, SD Rat, intravenous data using captisol formulation, read-out: Vss): 3.13 L/kg | AUC(0-inf) [4, 6]: 7670 ng·h/mL | AUC(0-t) [4, 6]: 7300 ng·h/mL | Cmax [4, 6]: 4990 ng/mL | Tmax [4, 6]: 0.32 h | dose-normalized AUC relative to ADX-102 ([4]; rats, oral, I-1 50 mg/kg vs ADX-102 10 mg/kg): approximately double
